Experiments:
[1] = system: heart tissues of Ang II-treated C57BL/6 mice; assay: Heart histopathology, Masson fibrosis staining, RT-qPCR and immunohistochemistry in Ang II-treated mice; assay type: in vivo, mouse; settings: Ang II 2 weeks
Method: Cardiac hypertrophy was induced in 6-week-old C57BL/6 mice by a […] subcutaneous injection of AngII (0.5 mg/kg/2 days for 2 weeks) in phosphate buffer (pH 7.2), as described previously 18. Mice in vehicle control group and Ang II group received 1% CMC-Na solution alone in the same schedule as compound-treated groups. Animals were killed under sodium pentobarbital anaesthesia. After mice was killed, heart tissues were embedded in 4% paraformaldehyde for pathological analysis and/or snap-frozen in liquid nitrogen for gene and protein expression analysis. In addition, the blood was collected from the right ventricle using a heparin-containing syringe with a needle at the time of death. […] Hearts were fixed in 4% paraformaldehyde and embedded in paraffin. The paraffin sections (5 μm) were stained with haematoxylin and eosin. To estimate the extent of damage, the specimen was observed under a light microscope (×200 amplification; Nikon, Tokyo, Japan). After deparaffinization and rehydration, 5 μm heart sections were treated with 3% H2O2 for 30 min. and with 1% BSA in PBS for 30 min. Slides were incubated overnight at 4°C with primary antibody (1:50) then incubated with secondary antibody (1:100; Santa Cruz Biotech) for 1 hr and DAB (A: B = 1: 20) for 5 min. at room temperature. At last the cell nuclei were stained with haematoxylin for 5 min., the sections were dehydrated and the images were viewed by a light microscope (×200 amplification; Nikon). Tissues were fixed in paraformaldehyde solution and embedded in paraffin. Paraffin sections (5 μm) of the heart tissues were stained with Masson to evaluate the fibrosis content. The stained sections then were viewed by light microscope (×200 amplification; Nikon).

[2] = system: AngII-induced cardiac hypertrophy in C57BL/6 mice; assay: Echocardiography and heart weight/bodyweight in AngII-induced cardiac hypertrophy mice; assay type: in vivo, mouse; settings: AngII-treated C57BL/6 mice, 20 mg/kg/day for 2 weeks, n = 7
Method: Cardiac hypertrophy was induced in 6‐week‐old C57BL/6 mice by a […] subcutaneous injection of AngII (0.5 mg/kg/2 days for 2 weeks) in phosphate buffer (pH 7.2), as described previously 18. Mice in vehicle control group and Ang II group received 1% CMC‐Na solution alone in the same schedule as compound‐treated groups. Animals were killed under sodium pentobarbital anaesthesia. After mice was killed, heart tissues were embedded in 4% paraformaldehyde for pathological analysis and/or snap‐frozen in liquid nitrogen for gene and protein expression analysis. In addition, the blood was collected from the right ventricle using a heparin‐containing syringe with a needle at the time of death.
At the day before the sacrifice, Doppler analysis was performed to ensure that pathologic cardiac hypertrophy was induced. The internal diameter and wall thickness of left ventricle (LV) were assessed by echocardiography 19. Hearts of the killed mice were dissected and weighted to compare heart weight/bodyweight (mg/kg) ratios in mice. Mice was anaesthetized with isoflurane, echocardiography was performed by SONOS 5500 ultrasound (Philips Electronics, Amsterdam, the Netherlands) with a 15‐MHz linear array ultrasound transducer. The LV was assessed in both parasternal long‐axis and short‐axis views at a frame rate of 120 Hz. End‐systole or end‐diastole was defined as the phase in which the smallest or largest area of LV respectively. LV posterior wall (LVPW) and LV internal dimension (LVID) were measured from LV M‐model tracing with a sweep speed of 50 mm/sec. at the mid‐papillary muscle level.

H9c2 cells = assay: EGF-induced hypertrophy of H9c2 cells (Western blot, RT-qPCR, immunofluorescence); assay type: cell-based, rat; settings: pre-treatment 2 hrs (AG1478 10 μM; 542/543 1-10 μM), EGF 100 ng/ml 6 hrs (mRNA) or 12 hrs (MyHC)
Method: (§1) Cells or heart tissues (30–50 mg) were lysated. […] Each PVDF membrane was incubated with specific antibodies.

[3] = system: EGFR signalling in H9c2 cells; settings: 10 μM pre-treatment 2 hrs, EGF 100 ng/ml 15 min, Western blot
Method: as §1

[4] = system: EGFR signalling in H9c2 cells; assay: Ang II-induced EGFR/AKT/ERK phosphorylation in H9c2 cells (Western blot); assay type: cell-based, rat; settings: Ang II 1 μM 15 min
Method: as §1

[5] = system: primary neonatal rat cardiomyocytes; assay: Ang II-stimulated primary neonatal rat cardiomyocytes (Western blot, RT-qPCR); assay type: cell-based; settings: 10 μM pre-treatment 2h, Ang II 1 μM 15min
Method: Cells were incubated with a DMEM medium that contained 5.5 mmol/L of D-glucose.
Figure S1. Effects of EGFR inhibitos in Ang II-stimulated primary neonatal rat cardiomyocytes. […] The cell lysates were collected and p-EGFR/EGFR (A) and p-AKT/p-ERK/GAPDH (B) were detected by Western Blot analysis. […] The cell lysates were collected and MyHC/GAPDH was detected by Western Blot analysis. […] The mRNA levels of ANP (D), β/α-MyHC (E), and SKA (F) were detected by RT-qPCR assay.

[6] = system: c-Src phosphorylation in H9c2 cells; assay: Ang II-induced c-Src phosphorylation in H9c2 cells (Western blot); assay type: cell-based, rat; settings: 10 μM pre-treatment 2 hrs, Ang II 1 μM 15 min
Method: as §1

| SMILES | cardiac EGFR signalling pathway activation (p-EGFR, p-ERK, p-AKT immunohistochemical staining) ([1]; 20 mg/kg) | Ang II-induced increases in heart expression of hypertrophic genes ANP, BNP, β/α-MyHC, SKA (RT-qPCR) ([1]; AG1478 20 mg/kg/day, 542 at both dosages (5 and 20 mg/kg/day)) | Ang II-induced heart structural abnormalities (haematoxylin and eosin staining) ([1]; daily treatment) | HR [2] | HW (mg)/BW (g) [2] | LVIDd (diastole left ventricle internal dimension) [2] | LVIDs (systolic left ventricle internal dimension) [2] | LVPW (left ventricle posterior wall) [2] | VS [2] | EGF-induced overexpression of pro-hypertrophic genes (MyHC, ANP, BNP, β/α-MyHC, SKA) (H9c2 cells) | activation of EGFR and downstream signalling (EGFR, AKT, ERK phosphorylation) induced by EGF [3] | activation of EGFR and downstream signalling (EGFR, AKT, ERK phosphorylation) induced by Ang II ([4]; AG1478 10 μM, 542/543 1, 2.5, 5 or 10 μM pre-treatment 2 hrs) | Ang II-increased phosphorylation of EGFR in primary cardiomyocytes [5] | Ang II-induced phosphorylation of c-Src [6] | Ang II-induced phosphorylation of EGFR ([4]; PP2 10 μM pre-treatment 2 hrs) |
| --- | --- | --- | --- | --- | --- | --- | --- | --- | --- | --- | --- | --- | --- | --- | --- |
| COc1cc2ncnc(Nc3cccc(Cl)c3)c2cc1OC [AG1478] | significantly inhibited | significantly blocked | significantly attenuated | 345.83 ± 70.87 | 5.68 ± 0.62 mg/g | 2.90 ± 0.26 mm | 1.57 ± 0.21 mm | 0.88 ± 0.03 mm | 0.95 ± 0.02 mm | significantly inhibited | inhibits | inhibits | markedly reversed | – | – |
| CC(C)(C)n1nc(-c2ccc(Cl)cc2)c2c(N)ncnc21 [PP2] | – | – | – | – | – | – | – | – | – | – | – | – | – | almost totally inhibited | almost totally inhibited |
